What follows are compounds tested against T1, Human immunodeficiency virus type 1 integrase (Human immunodeficiency virus 1, UniProt Q7ZJM1) (assay: Inhibition of HIV1 integrase).
T1 sequence (Q7ZJM1 whole entry): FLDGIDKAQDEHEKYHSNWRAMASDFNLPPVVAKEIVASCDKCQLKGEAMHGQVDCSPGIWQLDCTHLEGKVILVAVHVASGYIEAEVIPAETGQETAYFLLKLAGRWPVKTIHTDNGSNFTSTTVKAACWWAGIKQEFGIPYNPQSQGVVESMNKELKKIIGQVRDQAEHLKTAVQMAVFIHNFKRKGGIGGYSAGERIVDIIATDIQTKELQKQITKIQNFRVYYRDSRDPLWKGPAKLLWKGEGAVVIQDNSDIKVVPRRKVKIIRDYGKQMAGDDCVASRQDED

SMILES | IC50
O=C(O)c1cc2cc(O)c(O)cc2[nH]1 | < 10000 nM
O=C1C(O)=C(O)C(O)=C2CC(O)=CC=CC12 (stereo not given) | 2100 nM

Each compound was assayed on Human immunodeficiency virus 1 (assay: Antiviral activity against human immunodeficiency virus 1 in cell culture).
Format: functional, organism-based

SMILES | EC50 | IC95
COc1cc2c(cc1Cc1cccc(Cl)c1F)c(=O)c(C(=O)O)cn2[C@H](CO)C(C)C | 0.9 nM | 
O=C(CC(=O)c1ccc(Cc2ccc(F)cc2)o1)c1nc[nH]n1 |  | 12000 nM
O=C(NCc1ccc(F)cc1)c1nc(N2CCCCS2(=O)=O)c2cccnc2c1O |  | 100 nM
O=C(/C=C/c1cccn1Cc1ccccc1)CC(=O)C(=O)O | 1500 nM | 
O=C(O)C(=O)CC(=O)c1cccn1Cc1ccc(F)cc1 |  | 100 nM

What follows are compounds tested against T1, Human immunodeficiency virus type 1 integrase (assay: Inhibition of HIV1 integrase-mediated 3'-end processing activity).

SMILES | IC50
O=C(O)C(=O)CC(=O)c1cc(OCc2ccccc2)cc(OCc2ccccc2)c1 | 200 nM

What follows are compounds tested against T1, Human immunodeficiency virus type 1 integrase (assay: Inhibition of HIV1 integrase strand transfer activity).

SMILES | IC50
O=C(O)C(=O)CC(=O)c1cc(OCc2ccccc2)cc(OCc2ccccc2)c1 | 3500 nM
COc1cccc(CN(Cc2cccc(OC)c2)c2ccc3nc(N)[nH]c3c2)c1 | 1800 nM
N=C(N)c1ccc2cc(C#Cc3cccc(OCc4ccccc4)c3)ccc2c1 | 2100 nM
N#C/C(=C(/O)C(=O)O)c1cn(-c2ccc(F)cc2)c2ccccc12 | 10000 nM
CC(C)S(=O)(=O)Nc1ccc2nc(N)[nH]c2c1 | 2600 nM
O=C(c1cc(Cc2ccccc2)cc(CN2CCCS2(=O)=O)c1)c1ncc2cccnc2c1O | 10000 nM
CC(C)(C)C1CCC(C2=NCCc3ccc([C@H]4CC4c4ccc5cc(C(=N)N)ccc5c4)cc32)CC1 (stereo not given in full) | 3400 nM

— ChEMBL document CHEMBL1140620, “Development of integrase inhibitors for treatment of AIDS: an overview” (Eur J Med Chem, 2007)
